Our source for the IC50 values is patent publication US9676773B2, “Azaindole derivative” (TAIHO PHARMACEUTICAL CO., LTD., priority 2014, dated 2017).

Common to all, as to assay type: biochemical
Assay [1] deals with T1, purified recombinant human JAK3 protein (Homo sapiens, UniProt P52333).
T1 construct: purchased Carna Biosciences, Inc
T1 sequence (P52333 1-1124): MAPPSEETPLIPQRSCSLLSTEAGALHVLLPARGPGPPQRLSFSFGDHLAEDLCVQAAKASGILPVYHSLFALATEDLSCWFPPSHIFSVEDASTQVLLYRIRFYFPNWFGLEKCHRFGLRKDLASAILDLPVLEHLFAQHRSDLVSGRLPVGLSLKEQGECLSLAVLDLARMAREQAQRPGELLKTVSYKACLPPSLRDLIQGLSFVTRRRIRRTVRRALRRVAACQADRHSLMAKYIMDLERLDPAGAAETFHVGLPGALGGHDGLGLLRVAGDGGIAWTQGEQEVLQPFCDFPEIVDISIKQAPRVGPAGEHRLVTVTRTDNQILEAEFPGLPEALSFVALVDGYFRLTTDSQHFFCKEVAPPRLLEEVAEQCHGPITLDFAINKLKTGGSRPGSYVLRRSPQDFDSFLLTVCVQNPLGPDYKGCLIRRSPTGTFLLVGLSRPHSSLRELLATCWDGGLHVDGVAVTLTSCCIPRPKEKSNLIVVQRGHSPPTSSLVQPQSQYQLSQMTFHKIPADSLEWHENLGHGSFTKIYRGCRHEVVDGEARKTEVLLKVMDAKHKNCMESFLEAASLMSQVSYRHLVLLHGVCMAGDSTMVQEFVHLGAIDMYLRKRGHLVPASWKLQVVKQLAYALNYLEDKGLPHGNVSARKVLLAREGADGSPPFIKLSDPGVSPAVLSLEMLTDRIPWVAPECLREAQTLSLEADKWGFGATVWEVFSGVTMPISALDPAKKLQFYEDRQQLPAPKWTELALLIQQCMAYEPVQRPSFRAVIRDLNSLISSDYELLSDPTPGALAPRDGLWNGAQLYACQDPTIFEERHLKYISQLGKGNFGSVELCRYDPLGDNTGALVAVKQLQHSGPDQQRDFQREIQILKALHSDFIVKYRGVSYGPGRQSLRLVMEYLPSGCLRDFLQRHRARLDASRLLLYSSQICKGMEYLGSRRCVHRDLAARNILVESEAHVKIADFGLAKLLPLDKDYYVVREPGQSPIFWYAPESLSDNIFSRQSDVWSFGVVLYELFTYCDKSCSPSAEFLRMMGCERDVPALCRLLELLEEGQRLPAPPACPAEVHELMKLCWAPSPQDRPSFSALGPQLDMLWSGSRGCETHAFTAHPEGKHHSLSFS
The assay can be described thus: Measurement of JAK3 kinase-inhibitory activity. As to conditions: substrate peptide 1 μM, ATP 5 μM, 25° C., 80 minutes. The method, then: 3) Measurement of JAK3 Kinase-Inhibitory Activity
The activity of the compound of the present invention to inhibit the activity of JAK3 kinase was measured.
Among materials for the measurement of this inhibitory activity, a substrate peptide and a kinase protein were acquired as follows. As such a substrate peptide, a substrate peptide for QSS Assist™ JAK3-MSA assay kit (Carna Biosciences, Inc.) was purchased. As such a kinase protein, a purified recombinant human JAK3 protein (Carna Biosciences, Inc.) was purchased.
The method for measuring the inhibitory activity is as follows. First, a serial dilution of the compound of the present invention was prepared by the same method as that described in the above section regarding JAK1. This serial dilution solution (the final concentration of DMSO upon a kinase reaction: 5.0%) or DMSO (final concentration: 5.0%) was mixed with a solution containing the substrate peptide (final concentration: 1 μM), magnesium chloride (final concentration: 5 mM) and ATP (final concentration: 5 μM) in a buffer for kinase reaction (20 mM HEPES (pH 7.5), 2 mM dithiothreitol and 0.01% Triton X-100). Thereafter, a JAK3 protein was further added to the mixed solution, and the obtained mixture was then incubated at 25° C. for 80 minutes to carry out a kinase reaction. To the reaction solution, EDTA was added to a final concentration of 30 mM, so as to terminate the reaction. After termination of the reaction, the measurement and the data analysis were carried out by the same methods as those described in the above section regarding JAK1.

Assay [2] concerns the target T2, purified recombinant human JAK1 protein (Homo sapiens, UniProt P23458).
T2 construct: purchased Carna Biosciences, Inc
Nature of the assay: Measurement of JAK1 kinase-inhibitory activity. As to conditions: substrate peptide 1 μM, ATP 75 M (so in the source), 25° C., 120 minutes. The method, then:
1) Measurement of JAK1 Kinase-Inhibitory Activity
The activity of the compound of the present invention to inhibit the activity of JAK1 kinase was measured.
Among materials for the measurement of this inhibitory activity, a substrate peptide and a kinase protein were acquired as follows. As such a substrate peptide, a substrate peptide for QSS Assist™ JAK1-MSA assay kit (Carna Biosciences, Inc.) was purchased. As such a kinase protein, a purified recombinant human JAK1 protein (Carna Biosciences, Inc.) was purchased.
The method for measuring the inhibitory activity is as follows. First, the compounds of the present invention were each dissolved in dimethyl sulfoxide (DMSO), and a serial dilution was then prepared by the use of DMSO. Subsequently, a serial dilution solution of the compound (the final concentration of DMSO upon a kinase reaction: 5.0%) or DMSO (final concentration: 5.0%) was mixed with a solution containing the substrate peptide (final concentration: 1 μM), magnesium chloride (final concentration: 5 mM) and ATP (final concentration: 75 µM) in a buffer for kinase reaction (20 mM HEPES (pH 7.5), 2 mM dithiothreitol and 0.01% Triton X-100). Thereafter, a JAK1 protein was further added to the mixed solution, and the obtained mixture was then incubated at 25° C. for 120 minutes to carry out a kinase reaction. To the reaction solution, EDTA was added to a final concentration of 30 mM, so as to terminate the reaction. Finally, with LabChip EZ Reader II (Perkin Elmer Corp.), an unphosphorylated substrate peptide (S) and a phosphorylated peptide (P) were subjected to microchannel capillary electrophoresis, so that the two peptides were separated from each other and were then detected. The amount of a phosphorylation reaction was obtained based on the heights of the peaks of S and P, and the concentration of the compound capable of inhibiting 50% of the phosphorylation reaction was defined as an IC50 value (nM).

The target in assay [3] is T3, purified recombinant human JAK2 protein (Homo sapiens, UniProt O60674).
T3 construct: purchased Carna Biosciences, Inc
Nature of the assay: Measurement of JAK2 kinase-inhibitory activity. Conditions: FL-Peptide 22 1 μM, ATP 10 μM, 25° C., 80 minutes. On the procedure: 2) Measurement of JAK2 Kinase-Inhibitory Activity
The activity of the compound of the present invention to inhibit the activity of JAK2 kinase was measured.
Among materials for the measurement of this inhibitory activity, a substrate peptide and a kinase protein were acquired as follows. As such a substrate peptide, FL-Peptide 22 (Perkin Elmer Corp.) was purchased. As such a kinase protein, a purified recombinant human JAK2 protein (Carna Biosciences, Inc.) was purchased.
The method for measuring the inhibitory activity is as follows. First, a serial dilution of the compound of the present invention was prepared by the same method as that described in the above section regarding JAK1. This serial dilution solution (the final concentration of DMSO upon a kinase reaction: 5.0%) or DMSO (final concentration: 5.0%) was mixed with a solution containing the substrate peptide (final concentration: 1 μM), magnesium chloride (final concentration: 10 mM) and ATP (final concentration: 10 μM) in a buffer for kinase reaction (15 mM Tris (pH 7.5), 2 mM dithiothreitol and 0.01% Tween 20). Thereafter, a JAK2 protein was further added to the mixed solution, and the obtained mixture was then incubated at 25° C. for 80 minutes to carry out a kinase reaction. To the reaction solution, EDTA was added to a final concentration of 30 mM, so as to terminate the reaction. After termination of the reaction, the measurement and the data analysis were carried out by the same methods as those described in the above section regarding JAK1.

T3 sequence (O60674 whole entry): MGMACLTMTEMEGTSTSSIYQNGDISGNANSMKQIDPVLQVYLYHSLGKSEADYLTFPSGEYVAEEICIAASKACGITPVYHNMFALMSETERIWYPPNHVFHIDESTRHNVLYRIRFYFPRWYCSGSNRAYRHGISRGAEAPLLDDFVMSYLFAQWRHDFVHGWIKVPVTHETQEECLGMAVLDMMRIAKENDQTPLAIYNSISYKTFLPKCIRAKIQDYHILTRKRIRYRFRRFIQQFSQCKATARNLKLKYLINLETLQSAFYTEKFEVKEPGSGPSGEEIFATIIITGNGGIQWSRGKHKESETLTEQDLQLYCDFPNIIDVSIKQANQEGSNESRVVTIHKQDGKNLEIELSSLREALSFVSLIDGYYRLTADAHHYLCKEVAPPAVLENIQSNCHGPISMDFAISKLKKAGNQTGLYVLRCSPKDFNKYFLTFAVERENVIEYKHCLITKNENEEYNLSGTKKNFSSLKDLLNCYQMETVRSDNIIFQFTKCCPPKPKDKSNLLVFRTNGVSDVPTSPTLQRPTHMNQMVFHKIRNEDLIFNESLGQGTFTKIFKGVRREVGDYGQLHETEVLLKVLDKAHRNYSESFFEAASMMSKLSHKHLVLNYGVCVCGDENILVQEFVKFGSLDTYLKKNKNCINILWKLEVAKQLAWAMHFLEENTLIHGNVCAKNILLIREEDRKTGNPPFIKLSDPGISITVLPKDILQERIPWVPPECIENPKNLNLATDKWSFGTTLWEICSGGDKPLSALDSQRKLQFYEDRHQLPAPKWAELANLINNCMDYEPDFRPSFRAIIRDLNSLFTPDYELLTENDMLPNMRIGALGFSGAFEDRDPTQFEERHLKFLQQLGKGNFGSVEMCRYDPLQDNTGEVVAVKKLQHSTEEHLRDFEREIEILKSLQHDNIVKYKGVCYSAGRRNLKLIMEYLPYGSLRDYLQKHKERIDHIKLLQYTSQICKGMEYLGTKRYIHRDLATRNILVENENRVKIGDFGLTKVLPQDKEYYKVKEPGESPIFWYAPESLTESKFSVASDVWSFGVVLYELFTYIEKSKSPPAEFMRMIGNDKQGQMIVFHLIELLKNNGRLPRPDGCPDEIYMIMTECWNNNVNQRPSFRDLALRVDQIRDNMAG
T2 sequence (P23458 whole entry): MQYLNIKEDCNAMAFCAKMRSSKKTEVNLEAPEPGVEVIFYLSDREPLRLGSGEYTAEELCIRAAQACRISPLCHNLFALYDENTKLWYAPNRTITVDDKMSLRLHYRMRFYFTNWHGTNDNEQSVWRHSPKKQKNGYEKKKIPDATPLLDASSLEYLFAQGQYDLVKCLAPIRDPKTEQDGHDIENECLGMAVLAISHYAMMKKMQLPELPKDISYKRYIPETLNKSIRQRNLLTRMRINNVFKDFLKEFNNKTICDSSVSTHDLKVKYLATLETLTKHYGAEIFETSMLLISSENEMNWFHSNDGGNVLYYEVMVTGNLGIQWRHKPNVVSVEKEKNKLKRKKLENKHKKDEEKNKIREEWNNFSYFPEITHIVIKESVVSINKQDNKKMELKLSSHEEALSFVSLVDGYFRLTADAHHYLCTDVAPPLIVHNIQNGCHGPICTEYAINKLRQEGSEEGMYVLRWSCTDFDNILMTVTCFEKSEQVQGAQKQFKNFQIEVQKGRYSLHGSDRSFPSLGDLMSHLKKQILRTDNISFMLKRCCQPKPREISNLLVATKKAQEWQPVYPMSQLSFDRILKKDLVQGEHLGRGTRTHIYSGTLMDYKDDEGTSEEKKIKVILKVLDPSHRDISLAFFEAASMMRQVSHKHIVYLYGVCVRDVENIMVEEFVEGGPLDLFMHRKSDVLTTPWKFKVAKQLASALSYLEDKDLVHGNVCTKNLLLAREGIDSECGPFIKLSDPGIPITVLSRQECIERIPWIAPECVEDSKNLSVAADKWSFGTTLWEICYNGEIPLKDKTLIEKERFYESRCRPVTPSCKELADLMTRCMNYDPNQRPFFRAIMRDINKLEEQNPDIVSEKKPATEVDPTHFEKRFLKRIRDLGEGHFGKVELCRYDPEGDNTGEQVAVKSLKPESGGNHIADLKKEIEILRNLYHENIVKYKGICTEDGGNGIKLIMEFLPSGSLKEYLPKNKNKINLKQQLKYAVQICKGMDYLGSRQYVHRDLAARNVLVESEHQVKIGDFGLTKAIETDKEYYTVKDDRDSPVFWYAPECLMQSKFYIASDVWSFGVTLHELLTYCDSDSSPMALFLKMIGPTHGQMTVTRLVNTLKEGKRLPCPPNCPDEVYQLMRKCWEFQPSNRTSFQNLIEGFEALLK

In the case of `C=CC(=O)NC1CCC=C(c2ccnc3[nH]cc(-c4ccncc4)c23)C1` (stereo not drawn) [Compound 2, N-(3-(3-(Pyridin-4-yl)-1H-pyrrolo[2,3-b]pyridin-4-yl)cyclohex-3-en-1-yl)acrylamide], the IC50 (in general, the concentration that gives 50% inhibition) was 0.38 nM in assay [1], over 10000 nM in assay [2] and 3100 nM in assay [3].

As to `C=CC(=O)NC1CCC=C(c2ccnc3[nH]cc(-c4cccnc4)c23)C1` (stereo not drawn) [Compound 4, N-(3-(3-(Pyridin-3-yl)-1H-pyrrolo[2,3-b]pyridin-4-yl)cyclohex-3-en-1-yl)acrylamide], the IC50 came out at 0.53 nM in assay [1], 7000 nM in assay [2] and 2600 nM in assay [3].

Turning to `C=CC(=O)NC1CCC=C(c2ccnc3[nH]cc(-c4ccc(C=O)o4)c23)C1` (stereo not drawn) [Compound 9, N-(3-(3-(5-Formylfuran-2-yl)-1H-pyrrolo[2,3-b]pyridin-4-yl)cyclohex-3-en-1-yl)acrylamide], the figures for the IC50 in assay [1], in assay [2] and in assay [3] were under 0.3 nM, 2400 nM and 430 nM, respectively.

With `C=CC(=O)NC1CCC=C(c2ccnc3[nH]cc(-c4cncc(CO)c4)c23)C1` (stereo not drawn) [Compound 11, N-(3-(3-(5-(Hydroxymethyl)pyridin-3-yl)-1H-pyrrolo[2,3-b]pyridin-4-yl)cyclohex-3-en-1-yl)acrylamide], the IC50 in assay [1] is 0.49 nM; in assay [2], 9500 nM; in assay [3] it was 1900 nM.

With `C=CC(=O)NC1CCC=C(c2ccnc3[nH]cc(-c4cncs4)c23)C1` (stereo not drawn) [Compound 13, N-(3-(3-(Thiazol-5-yl)-1H-pyrrolo[2,3-b]pyridin-4-yl)cyclohex-3-en-1-yl)acrylamide], the results for the concentration for half-maximal inhibition (IC50) in assay [1], in assay [2] and in assay [3] were 0.34 nM, 5200 nM and 2000 nM, respectively.

For `C=CC(=O)NC1CCC=C(c2c(OC)cnc3[nH]cc(-c4ccco4)c23)C1` (stereo not drawn) [Compound 17, N-(3-(3-(Furan-2-yl)-5-methoxy-1H-pyrrolo[2,3-b]pyridin-4-yl)cyclohex-3-en-1-yl)acrylamide], the half-inhibitory concentration (IC50) in assay [1] was under 0.3 nM; in assay [2] it was 860 nM; in assay [3], 170 nM.

For the compound `C=CC(=O)NC1CCC=C(c2c(-c3cnn(C)c3)cnc3[nH]cc(-c4cccnc4)c23)C1` (stereo not drawn) [Compound 19, N-(3-(5-(1-Methyl-1H-pyrazolo-4-yl)-3-(pyridin-3-yl)-1H-pyrrolo[2,3-b]pyridin-4-yl)cyclohex-3-en-1-yl)acrylamide], the IC50 was 0.51 nM in assay [1], 1000 nM in assay [2] and 280 nM in assay [3].

For the compound `C=CC(=O)NC1CCC=C(c2ccnc3[nH]cc(C4=CCCCC4)c23)C1` (stereo not drawn) [Compound 30, N-(3-(3-(cyclohex-1-en-1-yl)-1H-pyrrolo[2,3-b]-pyridin-4-yl)cyclohex-3-en-1-yl)acrylamide], the figures for the half-inhibitory concentration (IC50) in assay [1], in assay [2] and in assay [3] were 0.48 nM, 3200 nM and 1400 nM, respectively.

For `C=CC(=O)NC1CCC=C(c2ccnc3[nH]cc(C4=CCOCC4)c23)C1` (stereo not drawn) [Compound 31, N-(3-(3-(3,6-Dihydro-2H-pyran-4-yl)-1H-pyrrolo[2,3-b]pyridin-4-yl)cyclohex-3-en-1-yl)acrylamide], the IC50 came to 0.71 nM in assay [1], 7700 nM in assay [2] and 3000 nM in assay [3].

With `C=CC(=O)NC1CCC=C(c2ccnc3[nH]cc(C4=CC(=O)CCC4)c23)C1` (stereo not drawn) [Compound 32, N-(3-(3-(3-Oxocyclohex-1-en-1-yl)-1H-pyrrolo[2,3-b]pyridin-4-yl)cyclohex-3-en-1-yl)acrylamide], the figures for the IC50 in assay [1], in assay [2] and in assay [3] were 0.72 nM, over 10000 nM and 3000 nM, respectively.

On to `C=CC(=O)NC1CCC=C(c2ccnc3[nH]cc(C4=CCCC4)c23)C1` (stereo not drawn) [Compound 33, N-(3-(3-(Cyclocyclopent-1-en-1-yl)-1H-pyrrolo[2,3-b]pyridin-4-yl)cyclohex-3-en-1-yl)acrylamide], for which the half-inhibitory concentration (IC50) in assay [1] was found to be 0.6 nM; in assay [2], 3600 nM; in assay [3], 1400 nM.

On to `C=CC(=O)NC1CCC=C(c2ccnc3[nH]cc(-c4cccnc4F)c23)C1` (stereo not drawn) [Compound 38, N-(3-(3-(2-Fluoropyridin-3-yl)-1H-pyrrolo[2,3-b]pyridin-4-yl)cyclohex-3-en-1-yl)acrylamide], for which the 50% inhibitory concentration (IC50) in assay [1] was 0.67 nM; in assay [2], 5800 nM; in assay [3], 2500 nM.

With `C=CC(=O)NC1CCC=C(c2ccnc3[nH]cc(-c4ccc(N)nc4)c23)C1` (stereo not drawn) [Compound 39, N-(3-(3-(6-Aminopyridin-3-yl)-1H-pyrrolo[2,3-b]pyridin-4-yl)cyclohex-3-en-1-yl)acrylamide], the figures for the concentration for half-maximal inhibition (IC50) in assay [1], in assay [2] and in assay [3] were 0.83 nM, over 10000 nM and 4800 nM, respectively.

With `C=CC(=O)NC1CCC=C(c2ccnc3[nH]cc(-c4ccc[n+]([O-])c4)c23)C1` (stereo not drawn) [Compound 43, 3-(4-(5-Acrylamidecyclohex-1-en-1-yl)-1H-pyrrolo[2,3-b]pyridin-3-yl)pyridine 1-oxide], the IC50 in assay [1] was 0.93 nM; in assay [2] it was over 10000 nM; in assay [3], 9100 nM.
